According to patent US10039844B2, “Imaging tumor glycolysis by non-invasive measurement of pyruvate kinase M2” (The Board of Trustees of the Leland Stanford Junior …, priority 2014, dated 2018):

Key:
[1] = tested on: orthotopic U87 human gliomas; experiment: PET imaging of orthotopic U87 tumors in mice; format: in vivo, mouse; details: 30 min after injection
Protocol: In vivo Tumor Models: For subcutaneous tumor models, U87 tumor cells (5×10^6 cells; 100 μL PBS) were injected subcutaneously on the back of female BALB/c nude mice (aged 6-8 weeks; Charles River Laboratories) and grown to approximately 150 mm^3. Tumor dimensions were measured periodically using a caliper (by the same experienced researcher), with tumor volumes calculated by the equation: volume=(π/6)×a×b×c, where a, b, and c represent three orthogonal axes of the tumor. For orthotopic brain tumor models, 2×10^5 U87 cells were implanted 0.5 mm anterior and 2 mm to the right of the bregma in the brains of 6-8 week-old nude mice, held in place using a stereotactic unit. The cells, suspended in 4 μL PBS, were injected at a depth of 3 mm over 5 min with an AS blunt-ended Hamilton syringe, which was subsequently held in place for a further 5 min. […]
The count densities were averaged for all volumes of interest at each time point to obtain a time versus radioactivity curve (TAC). Tumor and tissue TACs were normalized to injected dose, measured by a CRC-15 PET dose calibrator (Capintec, Inc.), and expressed as percentage injected dose per milliliter of tissue (% ID/mL). The area under the TAC, calculated as the integral of % ID/mL from 0 to 60 min, and the normalized uptake of radiotracer at 60 min (% ID/mL60) were also used for comparisons. […]

[2] = tested on: subcutaneous U87 human glioma xenografts; experiment: PET/CT and ex vivo biodistribution in mice bearing subcutaneous U87 xenografts; design: species or system mouse
Protocol: (§1) In vivo Tumor Models: For subcutaneous tumor models, U87 tumor cells (5×10^6 cells; 100 μL PBS) were injected subcutaneously on the back of female BALB/c nude mice (aged 6-8 weeks; Charles River Laboratories) and grown to approximately 150 mm^3. Tumor dimensions were measured periodically using a caliper (by the same experienced researcher), with tumor volumes calculated by the equation: volume=(π/6)×a×b×c, where a, b, and c represent three orthogonal axes of the tumor. For orthotopic brain tumor models, 2×10^5 U87 cells were implanted 0.5 mm anterior and 2 mm to the right of the bregma in the brains of 6-8 week-old nude mice, held in place using a stereotactic unit. The cells, suspended in 4 μL PBS, were injected at a depth of 3 mm over 5 min with an AS blunt-ended Hamilton syringe, which was subsequently held in place for a further 5 min. Animals were anaesthetized with an i.p. injection of 150 mg/kg ketamine, 15 mg/kg xylazine. Mice were subsequently imaged by MRI and PET 32-35 days post intracranial injection and GBM39 tumor-bearing mice were imaged between 44-50 days after implantation.
(§2) PET imaging scans were carried out on a docked Siemens Inveon PET/CT scanner (matrix size, 128×128×159; CT attenuation-corrected; non-scatter corrected), following a bolus i.v. injection of approximately 18.5 MBq of [^11C]DASA-23 into tumor-bearing mice. Dynamic scans were acquired in list mode format over 60 min. The acquired data were then sorted into 0.5-mm sinogram bins and 19 time frames for image reconstruction (4×15 s, 4×60 s and 11×300 s), which was done by iterative reconstruction using the following parameters: 3D ordered-subsets expectation maximization (3D-OSEM) followed by fast maximum a posteriori (fastMAP); MAP OSEM interations, 2; MAP subsets, 16; MAP iterations, 18.
(§3) The count densities were averaged for all volumes of interest at each time point to obtain a time versus radioactivity curve (TAC). Tumor and tissue TACs were normalized to injected dose, measured by a CRC-15 PET dose calibrator (Capintec, Inc.), and expressed as percentage injected dose per milliliter of tissue (% ID/mL). The area under the TAC, calculated as the integral of % ID/mL from 0 to 60 min, and the normalized uptake of radiotracer at 60 min (% ID/mL60) were also used for comparisons. Siemens Inveon Research Workplace software (v.4.0) was used for visualization of radiotracer uptake in the tumor, to define the three-dimensional (3D) volumes of interest (VOI) and for 3D-visualization to create volume rendering technique (VRT) images.
Ex vivo Biodistribution: After the PET imaging studies, 60 min post radiotracer administration, mice were sacrificed by exsanguination via cardiac puncture and tissues harvested. Tissue radioactivity for all organs was subsequently determined on a gamma counter (decay-corrected; Cobra II Auto-Gamma counter, Packard Biosciences Co, Pangbourne, UK). Ten-microliter standards from the stock activity were also counted for data normalization. Data were expressed as percent injected dose per gram of tissue (% ID/g).

[3] = Ex vivo mouse plasma stability; format: in vitro ADME; details: after 60 min, 37° C.
Protocol: Plasma Stability: [^11C]DASA-23 stability in mouse plasma was assessed ex vivo according to previously described methodology (James et al., (2012) J. Med. Chem. 55: 8272-8282, incorporated herein by reference in its entirety.
Samples were incubated for 10 min, 30 min, and 60 min and compared to a standard from the respective injected probe.

HeLa cells = experiment: Cell uptake and efflux of radiotracer in HeLa cells; format: cell-based, human
Protocol: (§4) Cell Uptake and Efflux Studies: U87 and HeLa cells (2×10^5) were plated into 6-well plates overnight before [^11C]DASA-23 uptake analysis. On the day of the experiment, fresh, pre-warmed DMEM containing 0.925 MBq of [^11C]DASA-23 was added to individual wells (1 mL/well, 9.25±4.63 pmol).
(§5) Cells were incubated with [^11C]DASA-23 at 37° C. and 5% CO2 over a 60 min time course. At the respective time points, plates were placed on ice, washed 3 times with ice-cold phosphate-buffered saline (PBS), and lysed in radioimmunoprecipitation assay buffer (Thermo Fisher Scientific Inc.; 500 μL). 300 μL cell lysates were transferred to counting tubes and decay-corrected radioactivity was determined on a y counter (Cobra II Auto-Gamma counter; Packard Biosciences Co.). The remaining lysate was frozen and used following radioactive decay for protein determination using a bicinchoninic acid (BCA) 96-well plate assay (Thermo Fisher Scientific Inc.) and for immunoblotting. In addition, 10 μL standards from the 0.925 MBq/mL solution added to cells were counted to quantitate percentage radiotracer uptake. For efflux studies, cells were incubated with radiotracer for 60 min, washed 3 times with room temperature (RT) Hank's Buffered Salt Solution (HBSS) before subsequent incubation at 37° C. in fresh, radiotracer-free, DMEM. At allotted times, samples were processed.

[4] = tested on: PKM2 in orthotopic GBM39 PDX tumors; experiment: PET imaging of orthotopic GBM39 PDX tumors at baseline and after TEPP-46 blocking; format: in vivo, mouse
Protocol: as §1, §2, §3

PKM2 [5] = target: T1, PKM2 (Homo sapiens, UniProt P14618); details: versus PKM1, PKR and PKL; cited from earlier work
Target sequence in this assay (P14618 whole entry, species assumed): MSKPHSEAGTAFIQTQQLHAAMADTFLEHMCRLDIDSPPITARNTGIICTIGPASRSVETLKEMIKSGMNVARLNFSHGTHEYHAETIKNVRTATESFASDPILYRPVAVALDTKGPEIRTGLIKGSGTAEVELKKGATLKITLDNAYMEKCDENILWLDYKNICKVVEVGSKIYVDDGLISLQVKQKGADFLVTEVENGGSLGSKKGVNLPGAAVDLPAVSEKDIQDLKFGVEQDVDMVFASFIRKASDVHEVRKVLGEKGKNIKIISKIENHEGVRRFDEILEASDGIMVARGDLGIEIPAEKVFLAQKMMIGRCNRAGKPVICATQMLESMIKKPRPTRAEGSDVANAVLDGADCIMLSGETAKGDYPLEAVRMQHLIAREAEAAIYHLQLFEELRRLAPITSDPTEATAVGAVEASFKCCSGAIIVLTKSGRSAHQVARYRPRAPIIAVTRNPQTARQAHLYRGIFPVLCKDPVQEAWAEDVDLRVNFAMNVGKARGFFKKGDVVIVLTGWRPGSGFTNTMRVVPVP

PKM2 [6] = target: T1, PKM2; experiment: Radiotracer uptake after PKM2 siRNA knockdown in HeLa cells; format: cell-based; design: endogenous in cells; host or cells: HeLa
Protocol: PKM2 siRNA: Time course PKM2 knockdown in HeLa cells was assessed over 72 h post-transfection. Cells were seeded in 6-well plates in antibiotic-free DMEM at 1.5×10^6 cells/well 24 h prior to siRNA transfection with DharmaFECT1 (Thermo Scientific), according to the manufacturer's instruction. Specific siRNA targeting only PKM2 were custom made by Thermo Scientific using the following sequences: […] (sense) (SEQ ID NO: 1), […] (antisense) (SEQ ID NO: 2). Scrambled siRNA (siCtrl; Cell Signaling Technology) was used as a control. siRNA were added at a final concentration of 25 nM. [^11C]DASA-23 uptake (0.925 MBq/mL) was measured after 30 min in cells transfected with siCtrl and siPKM2 at 24 h, 48 h and 72 h post transfection, and processed as described in Example 4, above. Untreated cells were used as a further control, measured 24 h post addition of fresh DMEM and 96 h post seeding.
Western Blotting: Monoclonal rabbit antibody to PKM1 and PKM2 (1:1000 dilution, Cell Signaling Technology) were used in a standard western blotting protocol. A rabbit anti-actin antibody (Sigma-Aldrich Co. Ltd; 1:2000) was used as a loading control. Blots were scanned and signal quantification was performed using ImageJ (National Institutes of Health).
Target sequence in this assay (P14618 2-531 limits assumed): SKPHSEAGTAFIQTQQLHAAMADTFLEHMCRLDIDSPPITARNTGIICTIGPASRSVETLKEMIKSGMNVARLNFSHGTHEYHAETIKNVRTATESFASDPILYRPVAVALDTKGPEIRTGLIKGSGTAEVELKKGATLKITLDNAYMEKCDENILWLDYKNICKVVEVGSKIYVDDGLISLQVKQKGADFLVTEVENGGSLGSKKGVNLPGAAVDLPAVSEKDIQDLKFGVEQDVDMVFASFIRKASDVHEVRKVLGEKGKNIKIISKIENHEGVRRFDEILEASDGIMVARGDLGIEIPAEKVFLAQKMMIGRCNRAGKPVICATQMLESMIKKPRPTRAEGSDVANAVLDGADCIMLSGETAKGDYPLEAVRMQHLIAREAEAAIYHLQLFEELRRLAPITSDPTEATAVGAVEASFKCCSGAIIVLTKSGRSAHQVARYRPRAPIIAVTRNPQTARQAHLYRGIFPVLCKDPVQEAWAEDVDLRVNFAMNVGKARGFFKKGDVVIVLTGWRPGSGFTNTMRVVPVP

U87 human glioma cells = experiment: Cell uptake and efflux of radiotracer in U87 cells; format: cell-based
Protocol: as §4, §5

[7] = 30 min post removal of exogenous radiotracer

[11CH3]Oc1ccc(S(=O)(=O)N2CCN(S(=O)(=O)c3c(F)cccc3F)CC2)cc1 [[^11C]DASA-23, 1-((2,6-difluorophenyl)sulfon-yl)-4-((4-(methoxy-^11C)phenyl)sulfonyl)piperazine]
radioactivity in the contralateral background tissue [1]: 0.78±0.18 % ID/g | radioactivity in the tumor ([1]; orthotopic U87 tumor): 1.68±0.47 % ID/g | uptake ratio of U87 tumor to blood ([2]; 60 min post injection): 1.1 | uptake ratio of U87 tumor to brain ([2]; 60 min post injection): 2.1 | uptake ratio of U87 tumor to muscle ([2]; 60 min post injection): 1.6 | time of peak brain uptake ([2]; dynamic PET, normal brain, after injection): 30 s | time to reach background levels in brain ([2]; dynamic PET, post injection): ≤ 10 min | time of peak tumor uptake ([2]; dynamic PET, subcutaneous U87 tumor): 10 min | accumulation in the brain ([2]; ex vivo biodistribution): did not accumulate in the brain | U87 tumor uptake ([2]; ex vivo biodistribution, 60 min post injection): 1.78±0.23 % of the injected dose (ID)/g | parent remaining in plasma [3]: > 96% | initial intracellular radioactivity retained (HeLa cells; [7]): about 40% | cellular uptake (HeLa cells; by 30 min): 14.9±2.0 %radioactivity/mg protein | tumor-associated retention at baseline ([4]; GBM39 tumor, 30 min after radiotracer injection): 1.61±0.25 % ID/g | tumor-associated retention after TEPP-46 ([4]; GBM39 tumor, 30 min after radiotracer injection, 1 hour after TEPP-46 50 mg/kg i.p.): 0.93±0.10 % ID/g | uptake in control, contralateral healthy brain ([4]; GBM39 tumor-bearing mice): 0.79±0.18 % ID/g | selectivity of activation versus other pyruvate kinase isozymes (PKM2 [5]): selective activation of PKM2 | reduction in uptake in siPKM2 cells versus control siRNA (PKM2 [6]; 24 h post transfection): 16.5% | uptake in siPKM2 cells as % of siCtrl cells (PKM2 [6]; 72 h post transfection): 44.5% | initial intracellular radioactivity retained (U87 human glioma cells; [7]): about 40% | cellular uptake (U87 human glioma cells; by 30 min): 19.6±2.0 % radioactivity/mg protein

Cn1c2cc([S+](C)[O-])sc2c2cnn(Cc3cccc(N)c3)c(=O)c21 (centres unmarked) [TEPP-46, 6-((3-Aminophenyl)methyl)-4-methyl-2-methylsulfinylthieno[3,4]pyrrolo[1,3-d]pyridazin-5-one, reference compound]
decrease of tumor-associated [^11C]DASA-23 retention ([4]; TEPP-46 50 mg/kg i.p., 1 hour before radiotracer): 42% | effect on [^11C]DASA-23 tumor signal ([4]; one hour after TEPP-46 injection): complete ablation of tumor signal to background levels
